One data set relates to rats. The data set can be described thus: Heat pain test, paw withdrawal latency after intraplantar injection. The conditions noted are these: for paw withdrawal latency / analgesic effect: intradermal hind paw injection, 100 μl, capsaicin 150 μM alone or with MRS1477 50 μM or TAT-De3 150 μM. It counts as in vivo, Sprague-Dawley rats. The method, then:
Animals. Male Sprague-Dawley rats (200-250 g, Charles River Laboratories, Inc.) were housed under a 12 h light-dark cycle and allowed access to food and water ad libitum. The ambient temperature of the holding and testing; rooms was ˜22° C. All procedures involving animals were carried out in strict compliance with the National Institutes of Health and institutional guidelines for the humane care of animals and were approved by the Animal Care and Use Committee of Zhejiang University (Approval ID: ZJU20190100). All efforts were made to minimize both animal numbers and distress within the experiments.
Animal behavioral measurements. A 10 mM stock solution of MRS1477 was prepared in 100% DMSO and further diluted in vehicle to 2 μg/100 μl (50 μM). […] Capsaicin-only injectates contained an equal amount of DMSO as those with MRS1477. All intraplantar injections were made using a. 29 G×½″, 3/10 cc insulin syringe. The experimenter was blinded to the identity of the injectates in the various behavioral experiments.
Thermal hyperalgesia measurement was performed as reported previously (11, 35). Briefly, unrestrained rats were placed on a clear glass platform which a light beam was applied onto the plantar hind paws of the animals under a small plastic cage which allowed them to move freely. The thermal nociceptive response was defined as the latency between light stimulus onset and paw withdrawal using a feedback-controlled shutdown unit. The intensity of the light stimulus was set such that naive rats responded with a latency of approximately 5 s. Each paw was tested one time. In the absence of a response within a predetermined maximum latency (30 s), the test was terminated to prevent tissue damage. On the day of testing, rats were allowed to habituate for at least 30 min prior to thermal stimulation. […]
We observed significant analgesic effects of TAT-De3 intradermally injected into the hind paw of rats against thermal pain. […] We recorded paw withdrawal latency to reflect the pain sensation. […]

Data set [1] is described as follows: Body temperature measured in the course of heat pain tests. The conditions noted are these: rats, injection of PAM in heat pain tests.
Another data set has as its system TRPV1. The data set can be described thus: Calcium imaging (Fluo-4) of capsaicin activation in transfected HEK293 cells. It counts as cell-based. As to conditions: 0.5 nM capsaicin; cells expressing only TRPV1. How it is done:
We then investigated whether, upon binding of the designed proteins, TRPV1 activation was positively modulated. […] Probenecid (2 mM) was included in all solutions to prevent Fluo-4 leakage from cells. At the end of incubation, cells were washed three times with ECS and incubated in the same solution for another 20 min at room temperature to complete the intracellular hydrolysis process of the AM ester, which converts the non-fluorescent Fluo-4/AM into the fluorescent version Fluo-4.
Coverslip with dye-loaded cells was placed in the quick-release magnetic chamber (Warner) and mounted on the stage of a Nikon Eclipse TE2000-U microscope system equipped with a Roper Cascade 128B CCD camera. Fluo-4 was excited by an Argon laser with a filter set of Z488/10 (excitation), z488rdc (dichroic) and recorded through an emission filter HQ5001p (all from Chroma). The duration of light exposure was controlled by a computer-driven mechanical shutter (Uniblitz). Cell images were acquired sequentially with an exposure period of 200 ms at an interval of 1 s. The shutter and the camera were controlled and synchronized by MetaMorph software (Universal Imaging).

`CCOC(=O)C1=C(c2ccccc2)NC(C)=C(C(=O)SCCOC)C1CC` (centres unmarked) [MRS1477]: the “duration of analgesic effects after a single injection” value with rats (co-injected with capsaicin 150 μM) is “diminished after three days”. The “paw withdrawal latency / analgesic effect” value with rats is given as “paw withdrawal latency was increased”. Besides, the “hyperthermia (body temperature)” value in data set [1] was “did not cause hyperthemia”.
As for `COc1cc(CNC(=O)CCCC/C=C/C(C)C)ccc1O` [capsaicin, reference compound], the “paw withdrawal latency / analgesic effect” value in the data set on rats was “no change in the paw withdrawal latency”. In addition, the calcium influx result in the data set with TRPV1 is on record as “did not illicit calcium influx”.

The values above are taken from US20240166695A1, “PEPTIDIC POSITIVE ALLOSTERIC MODULATORS TARGETING TRPV1” (priority 2021, published 2024).
